Test results as given in ChEMBL document CHEMBL6096638, “Design, synthesis and biological evaluation of novel TMPRSS2-PROTACs with florosubstituted 4-guanidino-N-phenylbenzamide derivative ligands” (Bioorg Med Chem, 2024).
Calls of active or inactive are those of the source. No cut-off for these calls is given here.

Assays:
HT-29 [1] = experiment: Induction of apoptosis in human HT-29 cells assessed as late apoptotic cells at 0.2 uM incubated for 48 hrs by Annexin V-FITC/PI staining based flow cytometric analysis (reference value: 5.87 %); type: functional
PC-3 = experiment: Antiproliferative activity against human PC-3 cells assessed as inhibition of cell growth incubated for 48 hrs by CCK-8 assay; type: functional, cell-based; conditions: PC-3, 48 h
HT-29 [2] = experiment: Induction of apoptosis in human HT-29 cells assessed as late apoptotic cells at 0.8 uM incubated for 48 hrs by Annexin V-FITC/PI staining based flow cytometric analysis (reference value: 5.87 %); type: functional
SK-N-AS = experiment: Antiproliferative activity against human SK-N-AS cells assessed as inhibition of cell growth incubated for 48 hrs by CCK-8 assay; type: functional, cell-based
Calu-3 [3] = experiment: Antiproliferative activity against human Calu-3 cells assessed as inhibition of cell growth at 20 uM incubated for 48 hrs by CCK-8 assay relative to control; type: functional
MDA-MB-231 = experiment: Antiproliferative activity against human MDA-MB-231 cells assessed as inhibition of cell growth incubated for 48 hrs by CCK-8 assay; type: functional, cell-based; conditions: MDA-MB-231, 48 h
HT-29 [4] = experiment: Induction of apoptosis in human HT-29 cells assessed as necrotic cells at 0.8 uM incubated for 48 hrs by Annexin V-FITC/PI staining based flow cytometric analysis (reference value: 2.48 %); type: functional
DU-145 [5] = experiment: Antiproliferative activity against human DU-145 cells assessed as inhibition of cell growth at 20 uM incubated for 48 hrs by CCK-8 assay relative to control; type: functional
HT-29 [6] = experiment: Induction of apoptosis in human HT-29 cells assessed as viable cells at 0.8 uM incubated for 48 hrs by Annexin V-FITC/PI staining based flow cytometric analysis (reference value: 90.4 %); type: functional; conditions: read-out: Activity
A549 = experiment: Antiproliferative activity against human A549 cells assessed as inhibition of cell growth incubated for 48 hrs by CCK-8 assay; type: functional, cell-based; conditions: A549, 48 h
HepG2 = experiment: Antiproliferative activity against human HepG2 cells assessed as inhibition of cell growth incubated for 48 hrs by CCK-8 assay; type: functional, cell-based; conditions: HepG2, 48 h
Calu-3 [7] = experiment: Antiproliferative activity against human Calu-3 cells assessed as inhibition of cell growth incubated for 48 hrs by CCK-8 assay; type: functional, cell-based; conditions: Calu-3, 48 h
DU-145 [8] = experiment: Antiproliferative activity against human DU-145 cells assessed as inhibition of cell growth incubated for 48 hrs by CCK-8 assay; type: functional, cell-based; conditions: DU-145, 48 h
HT-29 [9] = experiment: Induction of apoptosis in human HT-29 cells assessed as early apoptotic cells at 0.8 uM incubated for 48 hrs by Annexin V-FITC/PI staining based flow cytometric analysis (reference value: 1.22 %); type: functional
SH-SY5Y = experiment: Antiproliferative activity against human SH-SY5Y cells assessed as inhibition of cell growth incubated for 48 hrs by CCK-8 assay; type: functional, cell-based
HT-29 [10] = experiment: Induction of apoptosis in human HT-29 cells assessed as early apoptotic cells at 0.4 uM incubated for 48 hrs by Annexin V-FITC/PI staining based flow cytometric analysis (reference value: 1.22 %); type: functional
MCF7 = experiment: Antiproliferative activity against human MCF7 cells assessed as inhibition of cell growth incubated for 48 hrs by CCK-8 assay; type: functional, cell-based; conditions: MCF7, 48 h
HT-29 [11] = experiment: Induction of apoptosis in human HT-29 cells assessed as viable cells at 0.2 uM incubated for 48 hrs by Annexin V-FITC/PI staining based flow cytometric analysis (reference value: 90.4 %); type: functional; conditions: read-out: Activity
HT-29 [12] = experiment: Induction of apoptosis in human HT-29 cells assessed as necrotic cells at 0.2 uM incubated for 48 hrs by Annexin V-FITC/PI staining based flow cytometric analysis (reference value: 2.48 %); type: functional
[13] = target: von Hippel-Lindau disease tumor suppressor/Transmembrane protease serine 2 (Homo sapiens) (UniProt O15393+P40337); experiment: PROTAC activity at VHL/TMPRSS2 in human HT-29 cells assessed as induction of TMPRSS2 degradation at 2.5 uM incubated for 24 hrs by Western blotting analysis; type: cell-based
Sequence of von Hippel-Lindau disease tumor suppressor/Transmembrane protease serine 2 (Homo sapiens) (O15393 whole entry, looked up): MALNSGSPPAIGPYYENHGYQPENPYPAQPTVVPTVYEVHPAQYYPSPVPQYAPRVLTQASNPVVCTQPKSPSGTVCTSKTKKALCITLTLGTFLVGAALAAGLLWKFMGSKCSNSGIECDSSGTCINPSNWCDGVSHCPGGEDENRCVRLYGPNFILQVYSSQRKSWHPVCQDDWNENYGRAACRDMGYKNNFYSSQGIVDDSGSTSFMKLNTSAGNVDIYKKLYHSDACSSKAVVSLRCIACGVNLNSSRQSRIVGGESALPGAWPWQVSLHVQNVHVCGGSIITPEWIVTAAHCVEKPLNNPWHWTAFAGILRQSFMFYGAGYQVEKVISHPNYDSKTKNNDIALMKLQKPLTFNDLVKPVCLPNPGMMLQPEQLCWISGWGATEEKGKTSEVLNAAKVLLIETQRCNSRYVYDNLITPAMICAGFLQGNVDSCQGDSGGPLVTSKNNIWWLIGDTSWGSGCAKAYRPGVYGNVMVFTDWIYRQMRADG
Sequence of von Hippel-Lindau disease tumor suppressor/Transmembrane protease serine 2 (Homo sapiens) (P40337 whole entry, looked up): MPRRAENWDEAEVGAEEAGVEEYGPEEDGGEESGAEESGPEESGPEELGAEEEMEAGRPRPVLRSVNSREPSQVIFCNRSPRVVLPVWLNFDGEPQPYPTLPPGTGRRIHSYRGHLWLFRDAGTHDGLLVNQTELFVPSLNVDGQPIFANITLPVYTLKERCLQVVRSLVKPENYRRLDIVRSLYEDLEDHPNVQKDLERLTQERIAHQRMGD

AGS = experiment: Antiproliferative activity against human AGS cells assessed as inhibition of cell growth incubated for 48 hrs by CCK-8 assay; type: functional, cell-based
MRC5 = experiment: Antiproliferative activity against human MRC5 cells assessed as inhibition of cell growth incubated for 48 hrs by CCK-8 assay; type: functional, cell-based; conditions: MRC5, 48 h
HT-29 [14] = experiment: Antiproliferative activity against human HT-29 cells assessed as inhibition of cell growth incubated for 48 hrs by CCK-8 assay; type: functional, cell-based; conditions: HT-29, 48 h
786-0 = experiment: Antiproliferative activity against human 786-0 cells assessed as inhibition of cell growth incubated for 48 hrs by CCK-8 assay; type: functional, cell-based; conditions: 786-0, 48 h
A-375 = experiment: Antiproliferative activity against human A-375 cells assessed as inhibition of cell growth incubated for 48 hrs by CCK-8 assay; type: functional, cell-based; conditions: A-375, 48 h
HT-29 [15] = experiment: Inhibition of cell migration in human HT-29 cells at 0.2 to 0.8 uM incubated for 48 hrs by wound healing assay; type: functional, cell-based; conditions: dose 0.2-0.8 µM
K562 = experiment: Antiproliferative activity against human K562 cells assessed as inhibition of cell growth incubated for 48 hrs by CCK-8 assay; type: functional, cell-based; conditions: K562, 48 h
VCaP = experiment: Antiproliferative activity against human VCaP cells assessed as inhibition of cell growth incubated for 48 hrs by CCK-8 assay; type: functional, cell-based
CWR22R = experiment: Antiproliferative activity against human 22Rv1 cells assessed as inhibition of cell growth incubated for 48 hrs by CCK-8 assay; type: functional, cell-based; conditions: 22Rv1, 48 h
NCI-H1299 = experiment: Antiproliferative activity against human NCI-H1299 cells assessed as inhibition of cell growth incubated for 48 hrs by CCK-8 assay; type: functional, cell-based; conditions: NCI-H1299, 48 h
HT-29 [16] = experiment: Induction of apoptosis in human HT-29 cells assessed as viable cells at 0.4 uM incubated for 48 hrs by Annexin V-FITC/PI staining based flow cytometric analysis (reference value: 90.4 %); type: functional; conditions: read-out: Activity
HT-29 [17] = experiment: Induction of apoptosis in human HT-29 cells assessed as late apoptotic cells at 0.4 uM incubated for 48 hrs by Annexin V-FITC/PI staining based flow cytometric analysis (reference value: 5.87 %); type: functional
HT-29 [18] = experiment: Antiproliferative activity against human HT-29 cells assessed as inhibition of cell growth at 20 uM incubated for 48 hrs by CCK-8 assay relative to control; type: functional
HT-29 [19] = experiment: Inhibition of colony formation in human HT-29 cells incubated for 24 hrs by crystal violet staining based analysis; type: functional, cell-based; conditions: dose 0.1-0.4 µM
HT-29 [20] = experiment: Induction of apoptosis in human HT-29 cells assessed as early apoptotic cells at 0.2 uM incubated for 48 hrs by Annexin V-FITC/PI staining based flow cytometric analysis (reference value: 1.22 %); type: functional
HT-29 [21] = experiment: Induction of apoptosis in human HT-29 cells assessed as necrotic cells at 0.4 uM incubated for 48 hrs by Annexin V-FITC/PI staining based flow cytometric analysis (reference value: 2.48 %); type: functional
HT-29 [22] = experiment: Induction of cell cycle arrest in human HT-29 cells assessed as accumulation of cells at G2 phase at 0.8 uM incubated for 36 hrs by PI-staining based flow cytometry; type: functional

Compound: Cc1ncsc1-c1ccc([C@H](C)NC(=O)[C@@H]2C[C@@H](O)CN2C(=O)[C@@H](NC(=O)CN2CCC(CN3CCN(c4ccc(NC(=O)c5cc(F)c(NC(=N)N)cc5F)cc4)CC3)CC2)C(C)(C)C)cc1.Cl
- Activity (HT-29 [1]): 13%
- IC50 (PC-3): 24.5 µM
- Activity (HT-29 [2]): 23.2%
- IC50 (SK-N-AS): 6.91 µM
- inhibition at 20 µM (Calu-3 [3]): 96.1%
- IC50 (MDA-MB-231): 10.7 µM
- Activity (HT-29 [4]): 3.01%
- inhibition at 20 µM (DU-145 [5]): 74.6%
- viability at 0.8 µM (HT-29 [6]): 58.5%
- IC50 (A549): 12.3 µM
- IC50 (HepG2): 8.73 µM
- IC50 (Calu-3 [7]): 1.62 µM
- IC50 (DU-145 [8]): 5.26 µM
- Activity (HT-29 [9]): 15.3%
- IC50 (SH-SY5Y): 18 µM
- Activity (HT-29 [10]): 3.74%
- IC50 (MCF7): 13.3 µM
- viability at 0.2 µM (HT-29 [11]): 78.8%
- Activity (HT-29 [12]): 6.59%
- Activity [13]: Active
- IC50 (AGS): 14.9 µM
- IC50 (MRC5): > 40 µM
- IC50 (HT-29 [14]): 0.39 µM
- IC50 (786-0): 34.8 µM
- IC50 (A-375): 9.63 µM
- Activity (HT-29 [15]): Active
- IC50 (K562): 9.01 µM
- IC50 (VCaP): 7.57 µM
- IC50 (CWR22R): 20 µM
- IC50 (NCI-H1299): > 40 µM
- viability at 0.4 µM (HT-29 [16]): 80.4%
- Activity (HT-29 [17]): 11.6%
- inhibition at 20 µM (HT-29 [18]): 94.6%
- inhibition (HT-29 [19]): Dose-dependent-effect
- Activity (HT-29 [20]): 1.58%
- Activity (HT-29 [21]): 4.21%
- Activity (HT-29 [22]): Active
